Here are results for 19 molecules from ChEMBL document CHEMBL3853264 (Medchemcomm, 2016).

The nature of data set [1]: Drug level in rat hepatocytes treated with 4-(3-chloro-4-(hydroxymethyl)phenoxy)-3-cyano-N-(5-fluoropyridin-2-yl)benzenesulfonamide. It is filed as ADME, cell-based, Hepatocyte.
Data set [2] is described as follows: Intrinsic clearance in human liver microsomes. Particulars: read-out: CLH. The data set is classed as ADME.
Data set [3] in a line: Octanol-water partition co-efficient, log D of the compound by shake flask method. The data set is classed as physicochemical.
In data set [4] the target is T1, Solute carrier family 22 member 12 (Homo sapiens, UniProt Q96S37).
T1 sequence (Q96S37 whole entry): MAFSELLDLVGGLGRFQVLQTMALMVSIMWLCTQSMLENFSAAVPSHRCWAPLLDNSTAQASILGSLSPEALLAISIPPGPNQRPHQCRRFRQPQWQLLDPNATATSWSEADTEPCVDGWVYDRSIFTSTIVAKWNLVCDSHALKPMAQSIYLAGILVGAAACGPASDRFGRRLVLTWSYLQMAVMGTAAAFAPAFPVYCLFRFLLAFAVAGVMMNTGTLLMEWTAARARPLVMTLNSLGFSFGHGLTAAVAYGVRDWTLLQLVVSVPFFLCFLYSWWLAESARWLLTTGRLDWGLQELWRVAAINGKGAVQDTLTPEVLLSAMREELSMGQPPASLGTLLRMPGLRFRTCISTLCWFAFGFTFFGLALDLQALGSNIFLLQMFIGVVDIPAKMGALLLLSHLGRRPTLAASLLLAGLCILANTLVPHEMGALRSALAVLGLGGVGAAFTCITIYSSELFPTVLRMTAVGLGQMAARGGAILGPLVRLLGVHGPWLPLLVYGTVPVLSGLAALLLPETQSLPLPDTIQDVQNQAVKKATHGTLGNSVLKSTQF
The data set is described as follows: Inhibition of human C-terminal eGFP-tagged URAT1 long isoform expressed in CHO cells assessed as decrease in [14C]-uric acid uptake preincubated for 15 mins followed by [14C]-uric acid addition and incubated in dark for 3 hrs by scintillation counting method. The data set is classed as cell-based.

Data set [5] has as its target T1, Solute carrier family 22 member 12. The data set is described as follows: Inhibition of URAT1 (unknown origin).

Take `N#Cc1cc(S(=O)(=O)Nc2ccc(F)cn2)ccc1Oc1ccc(CO[C@@H]2O[C@H](C(=O)O)[C@@H](O)[C@H](O)[C@H]2O)c(Cl)c1`: the Drug metabolism result in data set [1] was “Metabolite_Detected”.

On to `N#Cc1ccc(Oc2ccc(S(=O)(=O)Nc3ccc(F)cn3)cc2C#N)cc1F`, for which the microsomal CLint in data set [2] was less than 8 µL/min/mg. This molecule also came in with a logD in data set [3] of 1.4.

For the molecule `N#Cc1ccc(Oc2ccc(S(=O)(=O)Nc3ccc(F)cn3)cc2F)cc1F`, in data set [4], the half-maximal inhibitory concentration (IC50) was found to be 382 nM.

On to `N#Cc1ccc(Oc2ccc(S(=O)(=O)Nc3ncns3)cc2C#N)cc1Cl`, for which, in data set [4], the IC50 is 1120 nM.

As for `N#Cc1cccc(Oc2ccc(S(=O)(=O)Nc3ccc(F)cn3)cc2C#N)c1`, the microsomal CLint in data set [2] is 65 µL/min/mg.

On to `N#Cc1ccc(Oc2ccc(S(=O)(=O)Nc3ncccn3)cc2C#N)cc1Cl`, for which, in data set [4], the 50% inhibitory concentration (IC50) is 1820 nM.

As for `N#Cc1ccc(Oc2ccc(S(=O)(=O)Nc3ccc(F)cn3)cc2C#N)c(Cl)c1`, the microsomal CLint in data set [2] is less than 8 µL/min/mg. The logD in data set [3] amounted to 1.9.

`N#Cc1ccc(Oc2ccc(S(=O)(=O)Nc3ccc(F)cn3)cc2C#N)cc1`: the microsomal CLint in data set [2] is less than 8 µL/min/mg.

In the case of `N#Cc1ccc(Oc2ccc(S(=O)(=O)Nc3ccncn3)cc2C#N)cc1Cl`, in data set [4], the IC50 was found to be 5150 nM.

Take `N#Cc1cc(S(=O)(=O)Nc2ccc(F)cn2)ccc1Oc1ccc(F)c(Cl)c1`: in data set [2], the microsomal CLint stood at 163 µL/min/mg. In data set [3], this molecule had a logD of 2.3.

Take `CC(C)(Oc1ccc(C(=O)c2ccc(Cl)cc2)cc1)C(=O)O` [FENOFIBRIC ACID]: inhibition in data set [5] was half-maximal at 11000 nM (IC50).

The molecule `CC(C)(Sc1ccncc1-c1ccc(C#N)c2ccccc12)C(=O)O` had a 50% inhibitory concentration (IC50) in data set [5] of 23 nM.

Regarding `N#Cc1cc(Oc2ccc(S(=O)(=O)Nc3ccc(F)cn3)cc2C#N)ccc1Cl`, in data set [2], the microsomal CLint is 134 µL/min/mg. This molecule also had a logD in data set [3] of 2.

As to `N#Cc1ccc(Oc2ccc(S(=O)(=O)Nc3ccc(F)cn3)cc2)cc1F`, in data set [4], the IC50 was found to be 88 nM.

Regarding `CC(C)OC(=O)C(C)(C)Oc1ccc(C(=O)c2ccc(Cl)cc2)cc1` [FENOFIBRATE], the IC50 in data set [5] is greater than 75000 nM.

On to `N#Cc1ccc(Oc2ccc(S(=O)(=O)Nc3ccc(F)cn3)c(F)c2)cc1F`, for which the IC50 in data set [4] was 37 nM.

Consider `N#Cc1ccc(Oc2ccc(S(=O)(=O)Nc3ccccn3)cc2C#N)cc1Cl`, for which the 50% inhibitory concentration (IC50) in data set [4] came out at 115 nM.

For the molecule `N#Cc1ccc(Oc2ccc(S(=O)(=O)Nc3cccnc3)cc2C#N)cc1Cl`, in data set [4], the IC50 amounted to 395 nM.

Turning to `N#Cc1cc(Oc2ccc(S(=O)(=O)Nc3ccc(F)cn3)cc2C#N)ccc1F`, the microsomal CLint in data set [2] worked out at 83 µL/min/mg. The same molecule came in with a log distribution coefficient (logD) in data set [3] of 1.5.
